Experimental data from patent US20190263796A1, “LIM KINASE INHIBITORS, PHARMACEUTICAL COMPOSITION AND METHOD OF USE IN LIMK-MEDIATED DISEASES” (CELLIPSE, priority 2016, published 2019).

Key:
Format in all cases: cell-based
[1] = system: Phospho-Ser3-Cofilin/Total Cofilin; assay: Western blot cofilin phosphorylation, MOLM-13; details: Homo sapiens, MOLM-13 cells
Experimental: (§1) MOLM-13 cell line was originally purchased from the Leibniz-Institut Deutsche Sammlung von Mikroorganismen und Zellkulturen GmbH (DSMZ). MOLM-13 cells are cultured in RPMI 1640 20% (v/v) FBS supplemented with 100 U/mL^−1 penicillin, 0.1 mg·mL^−1 streptomycin (PAN Biotech P06-07100). Cells were maintained at 37° C. with 5% CO2.
(§2) In a 6 wells plate (Falcon 353046), 2·10^6 cells in 1.5 mL medium are treated for 2 h with compounds. Cells are then collected and cell lysis is performed at 4° C. using RIPA buffer supplemented with protease inhibitors cocktail (Sigma-Aldrich P8340) and phosphatase inhibitors cocktail (Sigma-Aldrich P5726). Following centrifugation 30 min 15000 g 4° C., supernatants are mixed with Laemmli buffer and denaturation is performed by heating 5 min 95° C. 10 μL of samples are subjected to electrophoresis on 15% SDS-PAGE. After electro-transfer (Mini Transblot, Bio-Rad), the PVDF membrane (Merck-Millipore Immobilon P IPVH00010) is blocked with Tris Buffered Saline, pH 7.4 (TBS) with 0.1% Tween 20 and 5% BSA for 1 h RT under agitation. The membrane was rinsed 3 times 10 min at room temperature under agitation with TBS, 0.1% Tween-20 (TBST) and then 1 h at room temperature with anti-phospho-Ser3-cofilin (Cell Signaling Technology #3313, 1/1000 dilution) antibody or anti-cofilin (Cell Signaling Technology #3312, 1/1000 dilution) diluted in TBS, 0.1% Tween 20 and 1% BSA. The membrane is then rinsed 3 times 10 min at room temperature under agitation in TBST and incubated for 1 h with anti-rabbit secondary antibody, horseradish peroxidase conjugated (Jackson Immunoresearch #711-036-152) under agitation at room temperature. After three washes 10 min at room temperature in TBST, the detection of total or phosphorylated cofilin was performed using chemiluminescence kit ECL™ Plus (GE Healthcare RPN2132). For each concentration of compound, ratio between phosphorylated cofilin and total cofilin is determined. This ratio is then expressed as percentage of control ratio (i.e., ratio from DMSO treated cells). IC50 Phospho-Ser3-Cofilin/Total Cofilin is then determined.

P-MEK/Total MEK [2] = assay: Western blot MEK1 phosphorylation, MV4-11; details: for IC50: read-out: IC50 P-MEK/Total MEK; for Selectivity ratio: IC50 P-MEK/Total MEK divided by IC50 Phospho-Ser3-Cofilin/Total Cofilin
Experimental: as §1, with “MV4-11” for “MOLM-13”, “purchased from the American Type Culture Collection (ATCC) or” for “purchased”, “P06-07100) and 2 mM Glutamine (Sigma-Aldrich 59202C).” for “P06-07100).”
(§3) In a 6 wells plate (Falcon 353046), 2·10^6 cells in 1.5 mL medium are treated for 2 h with compounds. Cells are then collected and cell lysis is performed at 4° C. using RIPA buffer supplemented with protease inhibitors cocktail (Sigma-Aldrich P8340) and phosphatase inhibitors cocktail (Sigma-Aldrich P5726). Following centrifugation 30 min 15000 g 4° C., supernatants are mixed with Laemmli buffer and denaturation is performed by heating 5 min 95° C. 10 μL of samples are subjected to electrophoresis on 15% SDS-PAGE. After electro-transfer (Mini Transblot, Bio-Rad), the PVDF membrane (Merck-Millipore Immobilon P IPVH00010) is blocked with Tris Buffered Saline, pH 7.4 (TBS) with 0.1% Tween 20 and 5% BSA for 1 h at room temperature under agitation. The membrane was rinsed 3 times 10 min at room temperature under agitation with TBS, 0.1% Tween-20 (TBST) and then 1 h at room temperature with anti-phospho-Ser218/222-MEK1 (Merck-Millipore 07-461, 1/1000 dilution) antibody or anti-MEK1 (Merck-Millipore 07-641, 1/1000 dilution) diluted in TBS, 0.1% Tween 20 and 1% BSA. The membrane is then rinsed 3 times 10 min RT under agitation in TBST and incubated for 1 h with anti-rabbit secondary antibody, horseradish peroxidase conjugated (Jackson Immunoresearch #711-036-152) under agitation at room temperature. After three washes 10 min at room temperature in TBST, the detection of total or phosphorylated cofilin was performed using chemiluminescence kit ECL™ Plus (GE Healthcare RPN2132). For each concentration of compound, ratio between phosphorylated cofilin and total cofilin is determined. This ratio is then expressed as percentage of control ratio (i.e., ratio from DMSO treated cells). IC50 P-MEK/Total MEK is then determined.
(§4) Selectivity ratios are calculated by dividing the IC50 P-MEK/Total MEK value (μM) by the IC50 Phospho-Ser3-Cofilin/Total Cofilin value (μM).

P-MEK/Total MEK [3] = assay: Western blot MEK1 phosphorylation, HL-60; details: HL-60 cells; for IC50: 2 h, read-out: IC50 P-MEK/Total MEK; for Selectivity ratio: IC50 P-MEK/Total MEK divided by IC50 Phospho-Ser3-Cofilin/Total Cofilin
Experimental: as §1, with “HL-60” for “MOLM-13”, “10%” for “20%”
as §3, §4

P-MEK/Total MEK [4] = assay: Western blot MEK1 phosphorylation, MOLM-13; details: for IC50: Homo sapiens, read-out: IC50 P-MEK/Total MEK
Experimental: as §1, §3, §4

[5] = system: Phospho-Ser3-Cofilin/Total Cofilin; assay: Western blot cofilin phosphorylation, K-562; details: Homo sapiens; K562 cells; 2 h
Experimental: as §1, with “K-562” for “MOLM-13”, “10%” for “20%”
as §2

P-MEK/Total MEK [6] = assay: Western blot MEK1 phosphorylation, K-562; details: for IC50: Homo sapiens, read-out: IC50 P-MEK/Total MEK; for Selectivity ratio: IC50 P-MEK/Total MEK divided by IC50 Phospho-Ser3-Cofilin/Total Cofilin
Experimental: as §1, with “K-562” for “MOLM-13”, “10%” for “20%”
as §3, §4

[7] = system: Phospho-Ser3-Cofilin/Total Cofilin; assay: Western blot cofilin phosphorylation, THP-1; details: Homo sapiens; THP-1 cells; 2 h
Experimental: as §1, with “THP-1” for “MOLM-13”
In a 6 wells plate (Falcon 353046), 2·10^6 cells in 1.5 mL medium are treated for 2 h with compounds. Cells are then collected and cell lysis is performed at 4° C. using RIPA buffer supplemented with protease inhibitors cocktail (Sigma-Aldrich P8340) and phosphatase inhibitors cocktail (Sigma-Aldrich P5726). Following centrifugation 30 min 15000 g 4° C., supernatants are mixed with Laemmli buffer and denaturation is performed by heating 5 min 95° C. 10 μL of samples are subjected to electrophoresis on 15% SDS-PAGE. After electro-transfer (Mini Transblot, Bio-Rad), the PVDF membrane (Merck-Millipore Immobilon P IPVH00010) is blocked with Tris Buffered Saline, pH 7.4 (TBS) with 0.1% Tween 20 and 5% BSA for 1 h RT under agitation. […] For each concentration of compound, ratio between phosphorylated cofilin and total cofilin is determined. This ratio is then expressed as percentage of control ratio (i.e., ratio from DMSO treated cells). IC50 Phospho-Ser3-Cofilin/Total Cofilin is then determined.

Row | IC50 ([1]; 2 h) | IC50 (P-MEK/Total MEK [2]; MV4-11 cells, 2 h) | IC50 (P-MEK/Total MEK [3]) | IC50 (P-MEK/Total MEK [4]; MOLM-13 cells, 2 h) | IC50 (P-MEK/Total MEK [2]; Homo sapiens, MV4-11 cells, 2 h) | IC50 (P-MEK/Total MEK [6]; K562 cells, 2 h) | IC50 (P-MEK/Total MEK [3]; Homo sapiens) | Structure (SMILES) | Selectivity ratio (P-MEK/Total MEK [2]; MV4-11 cells) | Selectivity ratio (P-MEK/Total MEK [3]) | Selectivity ratio (P-MEK/Total MEK [4]; MOLM-13 cells, IC50 P-MEK/Total MEK divided by IC50 Phospho-Ser3-Cofilin/Total Cofilin) | IC50 [5] | IC50 (P-MEK/Total MEK [2]; Homo sapiens, MV4-11, 2 h) | IC50 (P-MEK/Total MEK [6]; K562, 2 h) | Selectivity ratio (P-MEK/Total MEK [6]; K562 cells) | IC50 [7] | IC50 ([1]; MOLM-13, 2 h) | IC50 (P-MEK/Total MEK [4]; MOLM-13, 2 h)
1 | < 0.2 µM | > 1 µM | > 1 µM | > 1 µM |  |  |  | O=S(=O)(Nc1cccc(-c2nc(CCO)sc2-c2ccnc(Nc3ccccc3)n2)c1F)c1c(F)cccc1F [8 (Na)] | 6 | 42 | 42 |  |  |  |  |  |  | 
2 |  |  |  |  |  |  |  | CC(C)(C)c1nc(-c2cccc(NS(=O)(=O)c3c(F)cccc3F)c2F)c(-c2ccnc(Nc3ccccc3)n2)s1 [Compound 1, N-(3-(2-(tert-butyl)-5-(2-(phenylamino)pyrimidin-4-yl)thiazol-4-yl)-2-fluorophenyl)-2,6-difluorobenzenesulfonamide] | 125 |  |  | 0.2 to 1 µM | > 1 µM | > 1 µM | 8 |  |  | 
3 |  |  |  |  | > 1 µM | 0.2 to 1 µM | > 1 µM | O=S(=O)(Nc1cccc(-c2nc(CCO)sc2-c2ccnc(Nc3ccccc3)n2)c1F)c1c(F)cccc1F [Compound 8, 2,6-difluoro-N-(2-fluoro-3-(2-(2-hydroxyethyl)-5-(2-(phenylamino)pyrimidin-4-yl)thiazol-4-yl)phenyl)benzenesulfonamide] | 4 | 31 |  | < 0.2 µM |  |  | 20 | < 0.2 µM |  | 
4 |  |  |  |  |  |  |  | CNC(=O)Cc1nc(-c2cccc(NS(=O)(=O)c3c(F)cccc3F)c2F)c(-c2ccnc(Nc3ccccc3)n2)s1 [Compound 9, 2-(4-(3-(2,6-difluorophenylsulfonamido)-2-fluorophenyl)-5-(2-(phenylamino)pyrimidin-4-yl)thiazol-2-yl)-N-methylacetamide] |  |  |  | < 0.2 µM | > 1 µM | > 1 µM |  | < 0.2 µM | < 0.2 µM | > 1 µM
